US12174172B2, “Method for evaluating the efficacy of a composition in reducing the effects of cancer therapeutics on skin” (Johnson & Johnson Consumer Inc., priority 2019, dated 2024)
Like-named read-outs stand apart in the source and are kept apart here. Marks after values point to notes of the source that are not given here.

Tests used:
[1] = tested on: Human epidermal keratinocytes cells (HPEKs), 3D micro-epidermis; test: 3D micro-epidermis model (EpiScreen): epidermis size, toxicity, dose response, classification; assay type: cell-based; conditions: for effect on desmoglein-1, involucrin and filaggrin expression (dose dependence): 3, 10, 30 nM; for Dose in response: variation of protein expression at 3, 10, 30 nM (EGFRi) or 3, 10, 30, 100 nM (VEGFRi); for Dose in response / Dose/response: markers in brackets; for Dose/response: supplementary table, per run (1st or 2nd Run);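 as to all read-outs here: keratinocytes on micropatterned discs in high-calcium medium, drug exposure for three days, then fixation and confocal high-content imaging of actin, nuclei and a marker, vehicle DMSO-matched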
[2] = tested on: desmoglein-1 (DSG1); test: 3D micro-epidermis model (EpiScreen): desmoglein-1 immunostaining; assay type: cell-based, human; conditions: for DSG 3 nM / DSG 30 nM / activation at 0.01 µM / activation at 0.1 µM: supplementary data; for activation at 0.01 µM / activation at 0.1 µM: Homo sapiens, 72 h; for activation at 0.01 µM: 10 nM, read-out: DSG 10 nM; for activation at 0.1 µM: 100 nM, Tox = toxic, read-out: DSG 100 nM; for DSG-1 expression: Table 1 summary
Procedure: (§1) To assess the effects of such therapy molecules on the epidermis, keratinocytes were grown in the presence of kinase inhibitors during 3 days with high calcium concentration to induce keratinocyte differentiation and generate a 3D-stratified differentiated epidermis. Drug impact on the epidermis development was assessed via different keratinocyte markers including: • Ki-67, an universally expressed protein among proliferating cells and absent in the quiescent cells; • Filaggrin, a filament-associated protein that binds to keratin fibers and is a marker of terminal differentiation; • Desmoglein-1, a component of desmosomes and differentiation marker expressed in all epidermal layer above the basal layer; and • Involucrin, an early differentiation marker expressed in the spinous and granular layers and a protein precursor of the epidermal cornified envelope.
(§2) Human epidermal keratinocytes cells (HPEKs) from a juvenile donor (CellnTec, Switzerland) are cultured in flasks in proliferation medium. Keratinocytes are seeded at passage 6 into EpiScreen™ (Abzena, Cambridge, UK) plates containing collagen 1 coated disc micropatterns (CYTOO, Grenoble, France). Four hours later, unattached cells are washed off and a high calcium medium is added to induce keratinocytes differentiation. The day after, keratinocytes are treated with screening compounds, and Trichostatin A is added at 0.3 μM as an internal positive control. After three days of treatment, micro-epidermises are fixed with a formalin solution 10% for 30 minutes, then permeabilized with 0.1% Triton. Several immunostainings are performed: actin (Acti-Stain 555, PHDH1, Cytoskeleton), nuclei (Hoechst, H3570, Invitrogen), and one biomarker of interest per well either anti-involucrin (HPA055211, Sigma), anti-filaggrin (HPA030189, Sigma) or anti-desmoglein-1 (HPA022128, Sigma). Antibodies are added overnight at 4° C. before staining with secondary antibody, anti-rabbit 488 (711-545-152, Jackson) for 2 hours at room temperature.
(§3) Images of each well are acquired with the Operetta HCS platform (Perkin Elmer, Waltham, MA, USA) using a ×10 objective in confocal mode in eight z-planes from 2 μm to 44 μm in steps of 6 μm in each of the 3 channels: actin, nuclei, and one biomarker of interest. The first step of the image analysis consists in detecting micro-epidermis structures on the first z-plane by segmenting the actin staining. Micro-epidermis structures are validated based on several area and roundness min and max criteria. Then, the area of each biomarker staining is measured inside the valid micro-epidermis masks through each z-plane. For all homogeneous biomarker staining, their intensity through the different planes is measured.
(§4) The actin network of each micro-epidermis is analyzed in each z-plane in order to determine the average 3D structure edges. The biomarker intensity is measured in each z-plane for each structure, and then averaged with the other results generated in the same well. Based on the data generated in the two previous steps, an average 3D reconstruction image is generated. It consists of a meshwork that delimits the structure edges, and a color scaled volume that corresponds to the biomarkers distribution and expression.
The effect of 8 oncology molecules, selected from first generation EGFRi and pan-kinase inhibitors which mostly target VEGFR and second and third generation therapies targeting main mutations relating to first generation treatment resistance, were assessed in vitro using a 3D micro-epidermis model. The drug incubation concentrations (3, 10, 30, 100 nM) were selected to reflect the clinically relevant (unbound) drug exposures (Table 2). The drug impact was assessed by analysis of tissue size and keratinocyte proliferation using Ki-67 staining and keratinocyte differentiation using filaggrin, desmoglein-1 and involucrin staining. […]

[3] = tested on: involucrin (IVL); test: 3D micro-epidermis model (EpiScreen): involucrin immunostaining; assay type: cell-based, human; conditions: for IVL 3 nM / IVL 10 nM / IVL 30 nM / activation at 0.1 µM / IVL 10 μM: supplementary data; for IVL 10 nM / activation at 0.1 µM / IVL 10 μM: two runs; for activation at 0.1 µM: Homo sapiens, 72 h, 100 nM; for activation at 0.1 µM / IVL 10 μM: Tox = toxic; for IVL expression: Table 1 summary
Procedure: as §1, §2, §3, §4
The effect of 8 oncology molecules, selected from first generation EGFRi and pan-kinase inhibitors which mostly target VEGFR and second and third generation therapies targeting main mutations relating to first generation treatment resistance, were assessed in vitro using a 3D micro-epidermis model. […] The drug impact was assessed by analysis of tissue size and keratinocyte proliferation using Ki-67 staining and keratinocyte differentiation using filaggrin, desmoglein-1 and involucrin staining.
Size of the epidermis and the expression of the protein junction desmoglein-1 (DSG1), involucrin (IVL) and filaggrin (FLG) was assessed by immunostaining and compared to untreated control. […]

[4] = tested on: filaggrin (FLG); test: 3D micro-epidermis model (EpiScreen): filaggrin immunostaining; assay type: cell-based, human; conditions: for FLG 3 nM / FLG 30 nM / activation at 0.01 µM / activation at 0.1 µM / FLG 10 μM: supplementary data; for activation at 0.01 µM / activation at 0.1 µM: Homo sapiens, 72 h; for activation at 0.01 µM / activation at 0.1 µM / FLG 10 μM: two runs; for activation at 0.1 µM / FLG 10 μM: Tox = toxic; for FLG expression: Table 1 summary;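 as to all read-outs here: human primary epidermal keratinocytes differentiated in high calcium into 3D micro-epidermises, compound-treated for three days, imaged by confocal high-content microscopy, filaggrin staining intensity quantified within actin-segmented structures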
[5] = cited from earlier work; for Cmax: maximal plasma concentration after a single daily-recommended dose, human; for Unbound fraction: unbound to plasma protein
[6] = most frequent cutaneous adverse reaction reported by the FDA Adverse Event Reporting System; cited from earlier work
[7] = tested on: desmoglein-1 (DSG1); test: 3D micro-epidermis model (EpiScreen): desmoglein-1 immunostaining; assay type: cell-based, human; conditions: 10 μM; supplementary data; Tox = toxic
[8] = tested on: SkinEthic Reconstructed Human Epidermis (RHE); test: Skin barrier function: trans-epidermal water loss (TEWL) on reconstructed human epidermis; assay type: cell-based; conditions: SDS 0.5% topical
Procedure: The effect of drugs on the skin barrier function was assessed by measuring trans-epidermal water loss (TEWL) rates on SkinEthicTM Reconstructed Human Epidermis (RHE) model (Episkin, Lyon, France) using Tewitro® TW 24 (Courage+Khazaka electronic GmbH, Köln, Germany). This instrument allows 24 simultaneous measurements on RHE. TEWL was analyzed at 33° C. in an incubator. […] Petrolatum, a highly hydrophobic hydrocarbon, water-repelling and insoluble in water was used to block water evaporation at the RHE surface (negative control). […] DMSO was used in the same proportion in the vehicle. SkinEthicTM RHE (Episkin, Lyon, France), is an in vitro reconstructed human epidermis from normal human keratinocytes cultured on an inert polycarbonate filter at the air-liquid interface, in a chemically defined medium. This model exists at different stages of maturity. This model is histologically similar to in vivo human epidermis. See […].com/SkinEthic%20RHE. The Tewitro® TW 24 is a device that measures water evaporation from cultured tissue sets (wells in a plate with medium) in up to 24 wells simultaneously. See https://www.courage-[…].

[9] = Table 1 summary of drug effect on epidermis
[10] = Table 1 summary, pro-differentiation / pro-proliferation
[11] = Table 3, 30 nM (EGFRi) or 100 nM (VEGFRi), 3 days, vs untreated control, superscript = significance footnote
[12] = Table 3, pro-proliferation or pro-differentiation
[13] = concentration (afatinib 3, 10, 30 nM; pan-kinase inhibitors 100 nM)

Compound	Toxicity at 1 μM [1]	effect on desmoglein-1, involucrin and filaggrin expression (dose dependence) [1]	Epidermis size [1, 9]	Classification [1, 10]	Epidermis size [1, 11]	Classification [1, 12]	Dose in response ([1]; Table 3)	Dose/response [1]	DSG 3 nM [2] [%]	DSG 30 nM [2] [%]	activation at 0.01 µM [2] [%]	activation at 0.1 µM [2] [%]	DSG-1 expression [2]	IVL 3 nM [3] [%]	IVL 10 nM [3] [%]	IVL expression [3]	FLG expression [4]	Cmax [5] [nM]	Unbound fraction [5]	Major Skin Effect [6]	also measured
C#Cc1cccc(Nc2ncnc3cc(OCCOC)c(OCCOC)cc23)c1 [Erlotinib]	Yes	did not affect	Decreased	Pro-differentiation	Decreased^1	Pro-	No	No	−7	1	-2	36	Increased	13	16	Increased	Increased	1600	5%	Papulo-pustular	IVL 30 nM [3]: 22%; activation at 0.1 µM [3]: 35%; FLG 3 nM [4]: 6%; FLG 30 nM [4]: 10%; activation at 0.01 µM ([4]; read-out: FLG 10 nM, 10 nM): 0%; activation at 0.1 µM ([4]; read-out: FLG 100 nM, 100 nM): 34%
CS(=O)(=O)CCNCc1ccc(-c2ccc3ncnc(Nc4ccc(OCc5cccc(F)c5)c(Cl)c4)c3c2)o1 [Lapatinib]	Yes	dose-dependent manner	Decreased	Pro-differentiation	Unchanged^4	Pro-	Yes	Yes (DSG, IVL,	−6.20	29	9.6	47	Increased	17	14	Increased	Increased	516	1%*	Rash	IVL 30 nM [3]: 30%; activation at 0.1 µM [3]: 48%; FLG 3 nM [4]: 7%; FLG 30 nM [4]: 20%; activation at 0.01 µM ([4]; 10 nM, read-out: FLG 10 nM): 9%; activation at 0.1 µM ([4]; 100 nM, read-out: FLG 100 nM): 18%; Unbound concentration ([5]; unbound plasma concentration, identified or calculated from Cmax and unbound fraction): 5.16* nM
CNC(=O)c1cc(Oc2ccc(NC(=O)Nc3ccc(Cl)c(C(F)(F)F)c3)cc2)ccn1 [Sorafenib]	–	–	Decreased	Pro-proliferation	Decreased^2	Pro-	No	No	–	–	-8	–	Unchanged	–	6	Unchanged	Decreased	8180	0.29%	Rash	Toxicity at 1 μM ([1]; 1 μM, micro-epidermis): Yes; desmoglein-1 expression [2, 13]: do not impact; IVL 10 μM [3]: Tox; involucrin expression [3, 13]: do not impact; FLG 10 μM [4]: Tox; activation at 0.01 µM ([4]; read-out: FLG 10 nM, 10 nM): -22%; DSG 10 μM [7]: Tox
CCN(CC)CCNC(=O)c1c(C)[nH]c(/C=C2\C(=O)Nc3ccc(F)cc32)c1C [Sunitinib]	–	–	–	–	–	–	–	–	–	–	15	–	–	–	0	–	–	75	5%*	Palmoplantar	Toxicity at 1 μM ([1]; 1 μM, micro-epidermis): No; micro-epidermis size / epidermal volume ([1]; concentration (afatinib 3-30 nM; pan-kinase inhibitors up to 100 nM)): no effect; IVL 10 μM [3]: 24%; FLG 10 μM [4]: 101%; activation at 0.01 µM ([4]; 10 nM, read-out: FLG 10 nM): -5%; DSG 10 μM [7]: 27%
sodium dodecyl sulfoxide [SDS]	–	–	–	–	–	–	–	–	–	–	–	–	–	–	–	–	–	–	–	–	increase of the TEWL rate ([8]; day 1): 98%; increase of the TEWL rate ([8]; day 2, afatinib 100 nM in the media): 77%; increase of the TEWL rate ([8]; day 5, afatinib 100 nM in the media): 58%; increase of the TEWL rate ([8]; day 7, afatinib 100 nM in the media): non-significant increase
